Assays:
[1] = molecular target: GABA-A receptor; anion channel; assay: Inhibition of [3H]diazepam binding to GABA-A central benzodiazepine receptor of rat brain homogenate
Mus musculus [2] = assay: Dose that prevented tonic extensor seizures and death in 50% of the mice.(ip); type: functional
[3] = Lethal dose when given intraperitoneally in mice; type: toxicity, organism-based; settings: mouse, in vivo, ip
[4] = molecular target: T1, GABA-A receptor; anion channel (Rattus norvegicus) (UniProt O09028+P15431+P18506+P18508+P19969+P20236+P23574+P23576+P28471+P28473+P30191+P62813+P63079+P63138+Q91ZM7+Q9ES14); assay: GABA ratio (IC50/IC50 in the presence of 10e-4 GABA).; type: protein-complex assay
Mus musculus [5] = assay: Antagonism of Diazepam muscle relaxant effect by compound (10 mg/kg, ip) was measured as the ratio of fallen/treated mice.; type: functional
[6] = molecular target: T1, GABA-A receptor; anion channel (Rattus norvegicus); assay: Relative inhibition of [3H]diazepam binding to GABA-A receptor of rat forebrain in the presence and absence of GABA(10e-4M)
Mus musculus [7] = assay: Antagonism of Diazepam muscle relaxant effect by compound (30 mg/kg, ip) was measured as the ratio of fallen/treated mice.; type: functional
Rattus norvegicus [8] = assay: Minimal effective dose (MED, ip) that significantly increased the number of shocks (anticonflict); type: functional; settings: read-out: MED
Mus musculus [9] = assay: Inhibition of Anti-pentylenetetrazole-induced convulsions in mice following i.p. administration.; type: functional; settings: ip
Mus musculus [10] = species on record: Mus musculus; assay: Anticonvulsant activity of the compound when maximal electroshock is induced in mouse; type: functional
Mus musculus [11] = assay: Activity was measured by rotarod test by intraperitoneal administration in mouse.; type: functional; settings: ip
Mus musculus [12] = assay: (§1) Anticonvulsant activity of the compound when lethal dose of strychnine given subcutaneously in mouse; type: ADME, organism-based; settings: in vivo, sc
Rattus norvegicus [13] = assay: Activity was measured by rotarod test by peroral administration in rat; type: functional; settings: po
Mus musculus [14] = assay: Minimal effective dose on mouse for motility after intraperitoneal administration.; type: functional; settings: ip, read-out: MED
Rattus norvegicus [15] = assay: Effective dose on rat for body tone after intraperitoneal administration.; type: functional
Mus musculus [16] = assay: Effective dose on mouse for motor coordination after intraperitoneal administration.; type: functional
Rattus norvegicus [17] = assay: Conditioned Avoidance response activity (CR2) at 10 mg/kg (i.p.) (No. of rats with blocked response/No. of treated rats); type: functional; settings: route intraperitoneal
Rattus norvegicus [18] = assay: Conditioned Avoidance response activity (CR2) at 20 mg/kg (i.p.) (No. of rats with blocked response/No. of treated rats); type: functional; settings: route intraperitoneal
Mus musculus [19] = assay: as §1; type: functional; settings: sc
Mus musculus [20] = assay: Effective dose on mouse for motility after intraperitoneal administration.; type: functional
Rattus norvegicus [21] = assay: Minimal effective dose on rat for mortality after intraperitoneal administration. (1/3 animals died); type: functional; settings: ip, read-out: MED
Mus musculus [22] = assay: Minimal effective dose on mouse for body tone after intraperitoneal administration.; type: functional; settings: ip, read-out: MED
Rattus norvegicus [23] = assay: Minimal effective dose on rat for motility after intraperitoneal administration.; type: functional; settings: ip, read-out: MED
Rattus norvegicus [24] = assay: Minimal effective dose on rat for body tone after intraperitoneal administration.; type: functional; settings: ip, read-out: MED
Rattus norvegicus [25] = assay: Minimal effective dose on rat for motor coordination after intraperitoneal administration.; type: functional; settings: ip, read-out: MED
Mus musculus [26] = assay: Minimal effective dose on mouse for mortality after intraperitoneal administration.(1/3 animals died); type: functional; settings: ip, read-out: MED
Rattus norvegicus [27] = assay: Effective dose on rat for motility after intraperitoneal administration.; type: functional
Rattus norvegicus [28] = assay: Effective dose on rat for motor coordination after intraperitoneal administration.; type: functional
Mus musculus [29] = assay: Anticonvulsant activity of the compound when bicuculline given subcutaneously in mouse; type: functional; settings: sc
Mus musculus [30] = assay: Effective dose on mouse for body tone after intraperitoneal administration.; type: functional
Mus musculus [31] = assay: Minimal effective dose on mouse for motor coordination after intraperitoneal administration.; type: functional; settings: ip, read-out: MED

O=C(O)c1ccc(-c2nnc3c4ccccc4c(N4CCCC4)nn23)cc1
Ki [1]: > 3000 nM
ED50 (Mus musculus [2]): > 75 mg/kg
LD50 [3]: 400 mg/kg

Oc1ccc(-c2nnc3c4ccccc4c(N4CCCC4)nn23)cc1
Ratio [4]: 1.1
Ki [1]: 11 nM
ED50 (Mus musculus [2]): > 100 mg/kg
LD50 [3]: 600 mg/kg

CN(C)c1nn2c(-c3ccccc3)nnc2c2ccccc12
Fallen/treated (Mus musculus [5]): 5
Ratio [6]: 1.1
Ki [1]: 20.8 nM
ED50 (Mus musculus [2]): > 75 mg/kg
LD50 [3]: 400 mg/kg
Fallen/treated (Mus musculus [7]): 2

COCCN(CCOC)c1nn2c(-c3ccc(OC(C)C)cc3)nnc2c2ccccc12
Ratio [4]: 1.8
minimal effective dose (Rattus norvegicus [8]): 10 mg/kg
Ki [1]: 142 nM
ED50 (Mus musculus [2]): 20.7 mg/kg
LD50 [3]: 600 mg/kg

c1ccc(-c2ccc(-c3nnc4c5ccccc5c(N5CCCC5)nn34)cc2)cc1
Ki [1]: > 3000 nM
ED50 (Mus musculus [2]): > 75 mg/kg
LD50 [3]: 400 mg/kg

CN(C)c1ccc(-c2nnc3c4ccccc4c(N4CCCC4)nn23)c(Cl)c1
Ki [1]: 393 nM
ED50 (Mus musculus [2]): > 100 mg/kg
LD50 [3]: 600 mg/kg

FC(F)(F)c1cccc(-c2nnc3c4ccccc4c(N4CCCC4)nn23)c1
ED50 (Mus musculus [9]): ≥ 100 mg/kg
Ki [1]: > 3000 nM
LD50 [3]: 600 mg/kg

CCNc1nn2c(-c3ccccc3)nnc2c2ccccc12
Ratio [6]: 0.9
Ki [1]: 37.6 nM
ED50 (Mus musculus [2]): > 50 mg/kg
LD50 [3]: 200 mg/kg

CN(C)c1ccc(-c2nnc3c4ccccc4c(N4CCCC4)nn23)cc1
ED50 (Mus musculus [9]): ≥ 75 mg/kg
Ki [1]: 1720 nM
LD50 [3]: 300 mg/kg

COc1cc(-c2nnc3c4ccccc4c(N4CCCC4)nn23)cc(Br)c1OC
Ki [1]: > 3000 nM
ED50 (Mus musculus [2]): > 100 mg/kg
LD50 [3]: 600 mg/kg

CCCCCOc1ccc(-c2nnc3c4ccccc4c(N4CCCC4)nn23)cc1OC
Ki [1]: > 3000 nM
ED50 (Mus musculus [2]): > 50 mg/kg
LD50 [3]: 200 mg/kg

COc1ccc(-c2nnc3c4ccccc4c(N(C)CC(C)O)nn23)cc1 (stereo not given)
Ratio [4]: 1.4
minimal effective dose (Rattus norvegicus [8]): 10 mg/kg
Ki [1]: 17 nM
ED50 (Mus musculus [2]): 9.8 mg/kg
LD50 [3]: 300 mg/kg

c1ccc(CNc2nn3c(-c4ccccc4)nnc3c3ccccc23)cc1
Ki [1]: 243 nM
ED50 (Mus musculus [2]): > 75 mg/kg
LD50 [3]: 400 mg/kg

CCOc1c(Br)cc(Br)cc1-c1nnc2c3ccccc3c(N3CCCC3)nn12
Ki [1]: > 3000 nM
ED50 (Mus musculus [2]): > 100 mg/kg
LD50 [3]: 600 mg/kg

CC(C)Nc1nn2c(-c3ccccc3)nnc2c2ccccc12
Ki [1]: 306 nM
ED50 (Mus musculus [2]): > 75 mg/kg
LD50 [3]: 400 mg/kg

CCN(C)c1nn2c(-c3ccccc3)nnc2c2ccccc12
ED50 (Mus musculus [9]): ≥ 50 mg/kg
Ratio [4]: 1.1
Ki [1]: 14.4 nM
LD50 [3]: 300 mg/kg

CC(=O)Nc1ccc(-c2nnc3c4ccccc4c(N4CCCC4)nn23)cc1
ED50 (Mus musculus [9]): ≥ 100 mg/kg
Ratio [4]: 1.1
Ki [1]: 36 nM
LD50 [3]: 600 mg/kg

CNc1nn2c(-c3ccccc3)nnc2c2ccccc12
Ratio [6]: 1
Ki [1]: 46.3 nM
ED50 (Mus musculus [2]): > 60 mg/kg
LD50 [3]: 300 mg/kg

COCCN(CCOC)c1nn2c(-c3ccc(F)cc3)nnc2c2ccccc12
ED50 (Mus musculus [9]): 60.1 mg/kg
Ratio [4]: 1.5
Ki [1]: 20 nM
LD50 [3]: 600 mg/kg

COCCN(CCOC)c1nn2c(-c3ccc(N(C)C)cc3)nnc2c2ccccc12
ED50 (Mus musculus [9]): 20 mg/kg
Ki [1]: 2650 nM
LD50 [3]: 200 mg/kg

Cc1nnc2ccc(-c3cccc(C(F)(F)F)c3)nn12 [CI-218872]
ED50 (Mus musculus [10]): 30 mg/kg
ED50 (Mus musculus [11]): 10 mg/kg
ED50 (Mus musculus [12]): 30 mg/kg

c1ccc(-c2nnc3c4ccccc4c(N4CCOCC4)nn23)cc1
ED50 (Mus musculus [9]): ≥ 100 mg/kg
Ratio [4]: 0.95
Ki [1]: 14 nM
LD50 [3]: 300 mg/kg

COCCN(CCOC)c1nn2c(-c3ccc(Cl)cc3)nnc2c2ccccc12
Ratio [4]: 1.3
Ki [1]: 17 nM
ED50 (Mus musculus [2]): 60.1 mg/kg
LD50 [3]: 600 mg/kg

COCCN(CCOC)c1nn2c(-c3ccc(OC)cc3)nnc2c2ccccc12
ED50 (Rattus norvegicus [13]): 300 mg/kg
minimal effective dose (Mus musculus [14]): 10 mg/kg
ED (Rattus norvegicus [15]): 600 mg/kg
ED (Mus musculus [16]): 60 mg/kg
ED50 (Mus musculus [10]): 50 mg/kg
CR2 (Rattus norvegicus [17]): 4 block/treat
Ratio [4]: 1.83
ED50 (Mus musculus [11]): 60 mg/kg
CR2 (Rattus norvegicus [18]): 10 block/treat
minimal effective dose (Rattus norvegicus [8]): 3.5 mg/kg
ED50 (Mus musculus [19]): 50 mg/kg
Ki [1]: 2.6 nM
ED (Mus musculus [20]): 60 mg/kg
minimal effective dose (Rattus norvegicus [21]): 1000 mg/kg
minimal effective dose (Mus musculus [22]): 6 mg/kg
minimal effective dose (Rattus norvegicus [23]): 300 mg/kg
minimal effective dose (Rattus norvegicus [24]): 300 mg/kg
minimal effective dose (Rattus norvegicus [25]): 100 mg/kg
ED50 (Mus musculus [2]): 6.2 mg/kg
minimal effective dose (Mus musculus [26]): 300 mg/kg
LD50 [3]: 300 mg/kg
ED (Rattus norvegicus [27]): 1000 mg/kg
ED (Rattus norvegicus [28]): 600 mg/kg
ED50 (Mus musculus [29]): 4 mg/kg
ED (Mus musculus [30]): 100 mg/kg
minimal effective dose (Mus musculus [31]): 6 mg/kg

— ChEMBL document CHEMBL1124125, “6-(Alkylamino)-3-aryl-1,2,4-triazolo[3,4-a]phthalazines. A new class of benzodiazepine receptor ligands” (J Med Chem, 1988)
